The text below walks through data of patent US3941850A, “α,α,α',α'-TETRAKIS(4-HYDROXY-3,5-DISUBSTITUTED PHENYL)XYLENE” (The Quaker Oats Company, priority 1974, dated 1976).

The structures appear in SMILES notation. Bounds are passed on as bounds.

The nature of series [1]: Antioxidant evaluation in cis-polyisoprene (IR carbonyl band, film in oven). To be noted: 130°C oven, 0.100 g antioxidant, until carbonyl band exceeded 6 cm. Here is the method: A number of candidate antioxidants were evaluated in cis-polyisoprene. Cis-polyisoprene was cut up into small pieces and dissolved overnight in a rapidly stirred solution of 500 ml of toluene. If the antioxidant was readily soluble in toluene, 0.100 g was then added to the cis-polyisoprenetoluene solution and stirred until it dissolved. If the antioxidant was not readily soluble in toluene it was dissolved in a small amount of an appropriate solvent and then added to the toluene solution. A sample of the solution was then taken up in a capillary dropper and 15 drops were placed on a circular sodium chloride plate, 1 inch in diameter. The plate was then put in a 130°C. oven for a few minutes to evaporate the toluene.
An infrared spectrum was run of the film on the plate. The plate was then put back in the oven. Every hour it was removed and another infrared spectrum was run. This procedure was repeated until appreciable oxidation had taken place as indicated by the appearance of a carbonyl band at 1700-1750 cm^^-1. The test was ended when the carbonyl band exceded 6 cm on a Perkin Elmer Infrared Spectophotometer, Model 710. This length is approximately equal to the length of the peak at 1450 cm^^-1.

A short description of series [2]: Heat aging test of polypropylene film. The settings on record: 140°C, 5 mil film, 0.1 % by weight tetraphenolic derivative, 0 synergist. Here is the method:
A number of candidate stabilizers were incorporated in 5 mil thick samples of polypropylene film, and the resulting materials evaluated by heat aging the films. In some of the tests where indicated dilaurylthiodipropionate was added as synergist.
In the heat aging test, polypropylene film samples 5 mil in thickness were maintained in an oven at 140°C. Each sample was tested for loss of structural integrity. The number of hours shown in the table are the total elapsed hours before the film cracked or embrittled when flexed. The film was embrittled when it crumbled to a powder.

Series [3] in a line: Solubility in ethanol and toluene. Format: physicochemical. The settings on record: 27°C.

Consider `Cc1cc(C(c2ccc(C(c3cc(C)c(O)c(C)c3)c3cc(C)c(O)c(C)c3)cc2)c2cc(C)c(O)c(C)c2)cc(C)c1O` [Test 12], for which the “Maximum Protection” value in series [1] came to 8 h. The same measure, in the same setting: the figure for `Cc1cc(C(c2ccc(C(c3cc(C)c(O)cc3C)c3cc(C)c(O)cc3C)cc2)c2cc(C)c(O)cc2C)c(C)cc1O` [Test 13] is 3 h. For `Cc1cc(C(c2ccc(C(c3cc(C)c(O)c(C(C)(C)C)c3)c3cc(C)c(O)c(C(C)(C)C)c3)cc2)c2cc(C)c(O)c(C(C)(C)C)c2)cc(C(C)(C)C)c1O` [Test 14], in series [1], the “Maximum Protection” value came out at 13 h. The same measure, in the same setting: the figure for `Cc1cc(O)c(C(C)(C)C)cc1C(c1ccc(C(c2cc(C(C)(C)C)c(O)cc2C)c2cc(C(C)(C)C)c(O)cc2C)cc1)c1cc(C(C)(C)C)c(O)cc1C` [Test 15] is 6 h; for `CC(C)c1cc(C(c2ccc(C(c3cc(C(C)C)c(O)c(C(C)C)c3)c3cc(C(C)C)c(O)c(C(C)C)c3)cc2)c2cc(C(C)C)c(O)c(C(C)C)c2)cc(C(C)C)c1O` [Test 16] it is 7 h; for `CCC(C)c1cc(C(c2ccc(C(c3cc(C(C)CC)c(O)c(C(C)CC)c3)c3cc(C(C)CC)c(O)c(C(C)CC)c3)cc2)c2cc(C(C)CC)c(O)c(C(C)CC)c2)cc(C(C)CC)c1O` (centres unmarked) [Test 17] it is 7 h.

With `CC(C)Cc1cc(C(c2ccc(C(c3cc(CC(C)C)c(O)c(CC(C)C)c3)c3cc(CC(C)C)c(O)c(CC(C)C)c3)cc2)c2cc(CC(C)C)c(O)c(CC(C)C)c2)cc(CC(C)C)c1O` [Test 18], the “Maximum Protection” value in series [1] is 6 h. For the molecule `CC(C)(C)c1cc(C(c2ccc(C(c3cc(C(C)(C)C)c(O)c(C(C)(C)C)c3)c3cc(C(C)(C)C)c(O)c(C(C)(C)C)c3)cc2)c2cc(C(C)(C)C)c(O)c(C(C)(C)C)c2)cc(C(C)(C)C)c1O` [Test 19], the “Maximum Protection” value in series [1] was found to be 16 h. On the same count and under the same terms, in the case of `CCCCC(CC)Cc1cc(C(c2ccc(C(c3cc(CC(CC)CCCC)c(O)c(CC(CC)CCCC)c3)c3cc(CC(CC)CCCC)c(O)c(CC(CC)CCCC)c3)cc2)c2cc(CC(CC)CCCC)c(O)c(CC(CC)CCCC)c2)cc(CC(CC)CCCC)c1O` (centres unmarked) [Test 20] it was 3 h; in that of `Oc1c(Cc2ccccc2)cc(C(c2ccc(C(c3cc(Cc4ccccc4)c(O)c(Cc4ccccc4)c3)c3cc(Cc4ccccc4)c(O)c(Cc4ccccc4)c3)cc2)c2cc(Cc3ccccc3)c(O)c(Cc3ccccc3)c2)cc1Cc1ccccc1` [Test 21], 7 h. Still for that read-out and setting: the figure for `Cc1ccc(Cc2cc(C(c3ccc(C(c4cc(Cc5ccc(C)cc5)c(O)c(Cc5ccc(C)cc5)c4)c4cc(Cc5ccc(C)cc5)c(O)c(Cc5ccc(C)cc5)c4)cc3)c3cc(Cc4ccc(C)cc4)c(O)c(Cc4ccc(C)cc4)c3)cc(Cc3ccc(C)cc3)c2O)cc1` [Test 22] is 6 h. On to `Cc1cc(C(c2ccc(C(c3cc(C)c(O)c(C)c3)c3cc(C)c(O)c(C)c3)cc2)c2cc(C)c(O)c(C)c2)cc(C)c1O` [Test 24], for which, in series [2], the “Oven Hours, Cracked” value was 31 h and the “Oven Hours, Embrittled” value was 31 h. On to `Cc1cc(C(c2ccc(C(c3cc(C)c(O)cc3C)c3cc(C)c(O)cc3C)cc2)c2cc(C)c(O)cc2C)c(C)cc1O` [Test 26], for which, in series [2], the “Oven Hours, Cracked” value stood at 30 h and the “Oven Hours, Embrittled” value amounted to 30 h. For `Cc1cc(C(c2ccc(C(c3cc(C)c(O)c(C)c3)c3cc(C)c(O)c(C)c3)cc2)c2cc(C)c(O)c(C)c2)cc(C)c1O` [Test 28], in series [3], the “Solubility, Ethanol” value is on record as 3 g/100 ml and the “Solubility, Toluene” value was “< .17 g/100 ml”.

`Cc1cc(C(c2ccc(C(c3cc(C)c(O)cc3C)c3cc(C)c(O)cc3C)cc2)c2cc(C)c(O)cc2C)c(C)cc1O` [Test 29]: in series [3], the “Solubility, Ethanol” value is recorded as “< .14 g/100 ml” and the “Solubility, Toluene” value is “< .17 g/100 ml”. On the same counts, the results for `Cc1cc(C(c2ccc(C(c3cc(C)c(O)c(C(C)(C)C)c3)c3cc(C)c(O)c(C(C)(C)C)c3)cc2)c2cc(C)c(O)c(C(C)(C)C)c2)cc(C(C)(C)C)c1O` [Test 30] are more than 9 g/100 ml and more than 9 g/100 ml. As for `Cc1cc(O)c(C(C)(C)C)cc1C(c1ccc(C(c2cc(C(C)(C)C)c(O)cc2C)c2cc(C(C)(C)C)c(O)cc2C)cc1)c1cc(C(C)(C)C)c(O)cc1C` [Test 31], in series [3], the “Solubility, Ethanol” value was more than 9 g/100 ml and the “Solubility, Toluene” value was “< .17 g/100 ml”.
